{
  "source": "ChEMBL document CHEMBL1158626",
  "about": "“Structure-activity relationship (SAR) investigations of tetrahydroquinolines as BKCa agonists” (2010)",
  "data": [
    {"test_system": "not listed separately", "assay": "Agonist activity at human BKCa channel expressed in CHO cells assessed as increase in potassium current at 3 uM by PatchXpress electrophysiology assay relative to control", "assay_type": "functional", "values": [
      {"smiles": "O=C(O)c1ccc2c(c1)[C@@H]1CCC[C@@H]1[C@@H](c1ccc(Cl)cc1Cl)N2", "fold change (FC)": 4.6},
      {"smiles": "O=C(O)c1ccc2c(c1)[C@@H]1C=CC[C@@H]1[C@@H](c1ccc(Cl)cc1Cl)N2", "fold change (FC)": 6.7},
      {"smiles": "O=C(O)c1ccc2c(c1)[C@@H]1C(O)C(O)C[C@@H]1[C@@H](c1ccc(Cl)cc1Cl)N2", "note": "(some centres not stated)", "fold change (FC)": 0.9},
      {"smiles": "O=C(O)c1ccc2nc(-c3ccc(Cl)cc3Cl)c3c(c2c1)CCC3", "fold change (FC)": 1},
      {"smiles": "O=C(O)c1ccc2c(c1)CC[C@@H](c1ccc(Cl)cc1Cl)N2", "fold change (FC)": 0.9},
      {"smiles": "O=C(O)Cc1ccc2c(c1)[C@@H]1C=CC[C@@H]1[C@@H](c1ccc(Cl)cc1Cl)N2", "fold change (FC)": 1.5},
      {"smiles": "O=C(O)c1ccc2c(c1)[C@@H]1OCC[C@@H]1[C@@H](c1ccc(Cl)cc1Cl)N2", "fold change (FC)": 1},
      {"smiles": "CS(=O)(=O)NC(=O)c1ccc2c(c1)[C@@H]1C=CC[C@@H]1[C@@H](c1ccc(Cl)cc1Cl)N2", "fold change (FC)": 2.7},
      {"smiles": "COC(=O)c1ccc2c(c1)[C@@H]1C=CC[C@@H]1[C@@H](c1ccc(Cl)cc1Cl)N2", "fold change (FC)": 1},
      {"smiles": "OCc1ccc2c(c1)[C@@H]1C=CC[C@@H]1[C@@H](c1ccc(Cl)cc1Cl)N2", "fold change (FC)": 1.5},
      {"smiles": "O=c1[nH]c(-c2ccc3c(c2)[C@@H]2C=CC[C@@H]2[C@@H](c2ccc(Cl)cc2Cl)N3)no1", "fold change (FC)": 3.4},
      {"smiles": "CONC(=O)c1ccc2c(c1)[C@@H]1C=CC[C@@H]1[C@@H](c1ccc(Cl)cc1Cl)N2", "fold change (FC)": 2.2},
      {"smiles": "O=C(O)c1ccc2c(c1)C1C=CCC[C@@H]1[C@@H](c1ccc(Cl)cc1Cl)N2", "note": "(single isomer, unassigned)", "fold change (FC)": 4.5},
      {"smiles": "O=C(O)c1ccc2c(c1)C1OCCC[C@@H]1[C@@H](c1ccc(Cl)cc1Cl)N2", "note": "(single isomer, unassigned)", "fold change (FC)": 1.5},
      {"smiles": "O=C(O)c1ccc2c(c1)C1CCCC[C@@H]1[C@@H](c1ccc(Cl)cc1Cl)N2", "note": "(single isomer, unassigned)", "fold change (FC)": 3.6}
    ]},
    {"species_on_record": "Rattus norvegicus", "assay": "Reduction in spontaneous neuronal firing in Sprague-Dawley rat at 10 uM", "assay_type": "functional", "units": {"inhibition (INH)": "%"}, "values": [
      {"smiles": "O=C(O)c1ccc2c(c1)[C@@H]1C=CC[C@@H]1[C@@H](c1ccc(Cl)cc1Cl)N2", "inhibition (INH)": 75}
    ]},
    {"test_system": "not listed separately", "assay": "Agonist activity at human BKCa channel expressed in CHO cells assessed as increase in potassium current at 10 uM by PatchXpress electrophysiology assay relative to control", "assay_type": "functional", "values": [
      {"smiles": "Cc1ccc([C@H]2Nc3ccc(C(=O)O)cc3[C@@H]3C=CC[C@H]23)c(C)c1", "fold change (FC)": 8.9},
      {"smiles": "O=C(O)c1ccc2c(c1)[C@@H]1C=CC[C@@H]1[C@@H](c1cccc(Cl)c1Cl)N2", "fold change (FC)": 2.7},
      {"smiles": "O=C(O)c1ccc2c(c1)[C@@H]1C=CC[C@@H]1[C@@H](c1ccc(Cl)c(Cl)c1)N2", "fold change (FC)": 12.1},
      {"smiles": "O=C(O)c1ccc2c(c1)[C@@H]1C=CC[C@@H]1[C@@H](c1ccc(Cl)cc1Cl)N2", "fold change (FC)": 11.2},
      {"smiles": "O=C(O)c1ccc2c(c1)[C@@H]1C=CC[C@@H]1[C@@H](c1ccc(Cl)cc1)N2", "fold change (FC)": 7.3},
      {"smiles": "O=C(O)c1ccc2c(c1)[C@@H]1C=CC[C@@H]1[C@@H](c1ccc(C(F)(F)F)cc1)N2", "fold change (FC)": 6},
      {"smiles": "O=C(O)c1ccc2c(c1)[C@@H]1C=CC[C@@H]1[C@@H](c1ccc(Br)cc1)N2", "fold change (FC)": 8.9},
      {"smiles": "O=C(O)c1ccc2c(c1)[C@@H]1C=CC[C@@H]1[C@@H](c1cccc(Cl)c1)N2", "fold change (FC)": 2.2},
      {"smiles": "Cc1cccc([C@H]2Nc3ccc(C(=O)O)cc3[C@@H]3C=CC[C@H]23)c1", "fold change (FC)": 3.1},
      {"smiles": "O=C(O)c1ccc2c(c1)[C@@H]1C=CC[C@@H]1[C@@H](c1ccccc1)N2", "fold change (FC)": 1.2},
      {"smiles": "O=C(O)c1ccc2c(c1)[C@@H]1C=CC[C@@H]1[C@@H](c1cccc(Br)c1)N2", "fold change (FC)": 2.6},
      {"smiles": "CC(C)(C)[C@H]1Nc2ccc(C(=O)O)cc2[C@@H]2C=CC[C@@H]21", "fold change (FC)": 0.8},
      {"smiles": "O=C(O)c1ccc2c(c1)[C@@H]1C=CC[C@@H]1[C@@H](c1ccccc1Cl)N2", "fold change (FC)": 4.9},
      {"smiles": "O=C(O)c1ccc2c(c1)[C@@H]1C=CC[C@@H]1[C@@H](c1ncc(Cl)cc1Cl)N2", "fold change (FC)": 2.5},
      {"smiles": "O=C(O)c1ccc2c(c1)[C@@H]1C=CC[C@@H]1CN2", "fold change (FC)": 0.6},
      {"smiles": "Cn1cc([C@H]2Nc3ccc(C(=O)O)cc3[C@@H]3C=CC[C@H]23)cn1", "fold change (FC)": 1}
    ]}
  ]
}
